Assay results reported in the NIST ThermoML archive (doi:10.1016/j.jct.2017.11.017).
± gives the expanded uncertainty stated by the source.

Experiments:
[1] = 101.33 kPa, Liquid, Vibrating tube method
[2] = activity coefficient (dimensionless); of the first substance listed, at infinite dilution; xn = mol fraction of the nth substance listed; details: 101.33 kPa, Liquid, Chromatography, x1 = 0

Row | SMILES | activity coefficient ([2]; 318.15 K) | activity coefficient ([2]; 328.15 K) | activity coefficient ([2]; 338.15 K) | activity coefficient ([2]; 348.15 K) | activity coefficient ([2]; 358.15 K) | activity coefficient ([2]; 368.15 K) | also measured
1 | C[n+]1ccn(CCCO)c1.N#CN=C=[N-] [1-(3-hydroxypropyl)-3-methylimidazolium dicyanamide] |  |  |  |  |  |  | mass density ([1]; 298.15 K): 1171 ± 11 kg/m3; mass density ([1]; 303.15 K): 1167.8 ± 11 kg/m3; mass density ([1]; 308.15 K): 1164.6 ± 11 kg/m3; mass density ([1]; 313.15 K): 1161.4 ± 11 kg/m3; mass density ([1]; 318.15 K): 1158.2 ± 11 kg/m3; mass density ([1]; 323.15 K): 1155.1 ± 11 kg/m3; mass density ([1]; 328.15 K): 1152 ± 11 kg/m3; mass density ([1]; 333.15 K): 1148.9 ± 10 kg/m3; mass density ([1]; 338.15 K): 1145.8 ± 10 kg/m3; mass density ([1]; 343.15 K): 1142.7 ± 10 kg/m3; mass density ([1]; 348.15 K): 1139.6 ± 10 kg/m3; mass density ([1]; 353.15 K): 1136.6 ± 10 kg/m3; mass density ([1]; 358.15 K): 1133.6 ± 10 kg/m3; mass density ([1]; 363.15 K): 1130.6 ± 10 kg/m3; mass density ([1]; 368.15 K): 1127.6 ± 10 kg/m3
2 | C[N+]1(CCCO)CCOCC1.N#C[N-]C#N [4-(3-hydroxypropyl)-4-methylmorpholinium dicyanamide] |  |  |  |  |  |  | mass density ([1]; 298.15 K): 1175.4 ± 3.7 kg/m3; mass density ([1]; 303.15 K): 1172.4 ± 3.7 kg/m3; mass density ([1]; 308.15 K): 1169.4 ± 3.7 kg/m3; mass density ([1]; 313.15 K): 1166.5 ± 3.7 kg/m3; mass density ([1]; 318.15 K): 1163.6 ± 3.7 kg/m3; mass density ([1]; 323.15 K): 1160.7 ± 3.7 kg/m3; mass density ([1]; 328.15 K): 1157.9 ± 3.7 kg/m3; mass density ([1]; 333.15 K): 1155 ± 3.7 kg/m3; mass density ([1]; 338.15 K): 1152.1 ± 3.6 kg/m3; mass density ([1]; 343.15 K): 1149.3 ± 3.6 kg/m3; mass density ([1]; 348.15 K): 1146.5 ± 3.6 kg/m3; mass density ([1]; 353.15 K): 1143.7 ± 3.6 kg/m3; mass density ([1]; 358.15 K): 1141 ± 3.6 kg/m3; mass density ([1]; 363.15 K): 1138.2 ± 3.6 kg/m3; mass density ([1]; 368.15 K): 1135.5 ± 3.6 kg/m3
3 | CCCCCCCC [octane] + C[n+]1ccn(CCCO)c1.N#CN=C=[N-] | 698 ± 48 | 626 ± 43 | 560 ± 39 | 509 ± 35 | 465 ± 32 |  | activity coefficient ([2]; 298.15 K): 881 ± 61; activity coefficient ([2]; 308.15 K): 779 ± 54
4 | CCCCCO [pentan-1-ol] + C[N+]1(CCCO)CCOCC1.N#C[N-]C#N | 7.75 ± 0.53 | 7.49 ± 0.51 | 7.26 ± 0.5 | 7.11 ± 0.48 | 6.88 ± 0.47 | 6.76 ± 0.46 | 
5 | CCCCCO [pentan-1-ol] + C[n+]1ccn(CCCO)c1.N#CN=C=[N-] | 4.16 ± 0.28 | 4.14 ± 0.28 | 4.1 ± 0.28 | 4.06 ± 0.28 | 4.08 ± 0.28 | 4.05 ± 0.28 | 
6 | CCCC(C)=O [pentan-2-one] + C[N+]1(CCCO)CCOCC1.N#C[N-]C#N | 7.85 ± 0.54 | 7.96 ± 0.54 | 8.1 ± 0.55 | 8.23 ± 0.56 | 8.33 ± 0.57 | 8.44 ± 0.58 | 
7 | CCCC(C)=O [pentan-2-one] + C[n+]1ccn(CCCO)c1.N#CN=C=[N-] | 4.94 ± 0.34 | 5.14 ± 0.35 | 5.32 ± 0.36 | 5.46 ± 0.37 | 5.67 ± 0.39 | 5.81 ± 0.4 | 
8 | CCC(=O)CC [pentan-3-one] + C[N+]1(CCCO)CCOCC1.N#C[N-]C#N | 8.09 ± 0.55 | 8.2 ± 0.56 | 8.38 ± 0.57 | 8.52 ± 0.58 | 8.61 ± 0.59 | 8.75 ± 0.6 | 
9 | CCC(=O)CC [pentan-3-one] + C[n+]1ccn(CCCO)c1.N#CN=C=[N-] | 5.1 ± 0.35 | 5.29 ± 0.36 | 5.54 ± 0.38 | 5.71 ± 0.39 | 5.95 ± 0.41 | 6.11 ± 0.42 | 
10 | CCCO [propan-1-ol] + C[N+]1(CCCO)CCOCC1.N#C[N-]C#N | 2.63 ± 0.18 | 2.58 ± 0.18 | 2.55 ± 0.17 | 2.52 ± 0.17 | 2.49 ± 0.17 | 2.46 ± 0.17 | 
11 | CCCO [propan-1-ol] + C[n+]1ccn(CCCO)c1.N#CN=C=[N-] | 1.77 ± 0.12 | 1.76 ± 0.12 | 1.76 ± 0.12 | 1.76 ± 0.12 | 1.77 ± 0.12 | 1.78 ± 0.12 | 
12 | CC(C)O [propan-2-ol] + C[N+]1(CCCO)CCOCC1.N#C[N-]C#N | 2.85 ± 0.19 | 2.78 ± 0.19 | 2.72 ± 0.19 | 2.67 ± 0.18 | 2.64 ± 0.18 | 2.6 ± 0.18 | 
13 | CC(C)O [propan-2-ol] + C[n+]1ccn(CCCO)c1.N#CN=C=[N-] | 1.92 ± 0.13 | 1.92 ± 0.13 | 1.92 ± 0.13 | 1.91 ± 0.13 | 1.91 ± 0.13 | 1.92 ± 0.13 | 
14 | CCCc1ccccc1 [propylbenzene] + C[N+]1(CCCO)CCOCC1.N#C[N-]C#N | 54.1 ± 3.7 | 53.2 ± 3.6 | 52.4 ± 3.6 | 51.5 ± 3.5 | 51 ± 3.5 | 50.2 ± 3.4 | 
15 | CCCc1ccccc1 [propylbenzene] + C[n+]1ccn(CCCO)c1.N#CN=C=[N-] | 26.8 ± 1.8 | 27.3 ± 1.9 | 27.6 ± 1.9 | 27.9 ± 1.9 | 28.2 ± 1.9 | 28.4 ± 1.9 | 
16 | c1ccncc1 [pyridine] + C[N+]1(CCCO)CCOCC1.N#C[N-]C#N | 1.71 ± 0.11 | 1.8 ± 0.12 | 1.89 ± 0.13 | 1.97 ± 0.13 | 2.06 ± 0.14 | 2.15 ± 0.15 | 
17 | c1ccncc1 [pyridine] + C[n+]1ccn(CCCO)c1.N#CN=C=[N-] | 1.33 ± 0.09 | 1.41 ± 0.09 | 1.5 ± 0.1 | 1.58 ± 0.1 | 1.67 ± 0.11 | 1.75 ± 0.12 | 
18 | C=Cc1ccccc1 [styrene] + C[N+]1(CCCO)CCOCC1.N#C[N-]C#N | 9.96 ± 0.68 | 10.3 ± 0.7 | 10.5 ± 0.7 | 10.8 ± 0.7 | 11 ± 0.8 | 11.3 ± 0.8 | 
19 | C=Cc1ccccc1 [styrene] + C[n+]1ccn(CCCO)c1.N#CN=C=[N-] | 5.97 ± 0.41 | 6.25 ± 0.43 | 6.57 ± 0.45 | 6.82 ± 0.46 | 7.14 ± 0.49 | 7.39 ± 0.5 | 
20 | C1CCOC1 [tetrahydrofuran] + C[N+]1(CCCO)CCOCC1.N#C[N-]C#N | 4.57 ± 0.31 | 4.61 ± 0.31 | 4.67 ± 0.32 | 4.72 ± 0.32 | 4.78 ± 0.33 | 4.83 ± 0.33 | 
21 | C1CCOC1 [tetrahydrofuran] + C[n+]1ccn(CCCO)c1.N#CN=C=[N-] | 3.07 ± 0.21 | 3.19 ± 0.22 | 3.33 ± 0.23 | 3.44 ± 0.23 | 3.57 ± 0.24 | 3.67 ± 0.25 | 
22 | c1ccsc1 [thiophene] + C[N+]1(CCCO)CCOCC1.N#C[N-]C#N | 3.23 ± 0.22 | 3.37 ± 0.23 | 3.51 ± 0.24 | 3.64 ± 0.25 | 3.77 ± 0.26 | 3.9 ± 0.27 | 
23 | c1ccsc1 [thiophene] + C[n+]1ccn(CCCO)c1.N#CN=C=[N-] | 2.44 ± 0.17 | 2.57 ± 0.17 | 2.69 ± 0.18 | 2.82 ± 0.19 | 2.95 ± 0.2 | 3.07 ± 0.21 | 
24 | Cc1ccccc1 [toluene] + C[N+]1(CCCO)CCOCC1.N#C[N-]C#N | 13 ± 0.9 | 13.1 ± 0.9 | 13.3 ± 0.9 | 13.4 ± 0.9 | 13.6 ± 0.9 | 13.7 ± 0.9 | 
25 | Cc1ccccc1 [toluene] + C[n+]1ccn(CCCO)c1.N#CN=C=[N-] | 7.75 ± 0.53 | 8 ± 0.55 | 8.27 ± 0.56 | 8.51 ± 0.58 | 8.84 ± 0.6 | 9.09 ± 0.62 | 
26 | C=COC(C)=O [vinyl acetate] + C[N+]1(CCCO)CCOCC1.N#C[N-]C#N | 6.62 ± 0.45 | 6.72 ± 0.46 | 6.81 ± 0.46 | 6.89 ± 0.47 | 6.99 ± 0.48 | 7.08 ± 0.48 | 
27 | C=COC(C)=O [vinyl acetate] + C[n+]1ccn(CCCO)c1.N#CN=C=[N-] | 4.73 ± 0.32 | 4.92 ± 0.34 | 5.12 ± 0.35 | 5.3 ± 0.36 | 5.49 ± 0.37 | 5.68 ± 0.39 | 
28 | O [water] + C[N+]1(CCCO)CCOCC1.N#C[N-]C#N | 0.364 ± 0.033 | 0.373 ± 0.033 | 0.384 ± 0.033 | 0.395 ± 0.034 | 0.404 ± 0.034 | 0.414 ± 0.034 | 
29 | O [water] + C[n+]1ccn(CCCO)c1.N#CN=C=[N-] | 0.35 ± 0.03 | 0.36 ± 0.03 | 0.37 ± 0.03 | 0.38 ± 0.03 | 0.4 ± 0.03 | 0.41 ± 0.03 | 
